In US20100120700A1, “METHODS AND COMPOSITIONS FOR TREATING CERVICAL CANCER” (priority 2000, published 2010):
Entries after “also recorded” stand apart in the source; their conditions may differ.

Assays:
human PDZ domains = assay: G assay, E6 PL peptides against PDZ domain panel; conditions: value names the PDZ domain(s) that saturated binding with the E6 peptide; signal classes (A450 nm 3-4 or 4)
Protocol: (1) A PDZ-domain polypeptide is bound to a surface, e.g. a protein binding surface. In a preferred embodiment, a GST/PDZ fusion protein containing one or more PDZ domains is bound to a polystyrene 96-well plate. […] In one embodiment, the GST/PDZ fusion protein is bound via an anti-GST antibody that is coated onto the 96-well plate. Adequate binding to the plate can be achieved when: • a. 100 uL per well of 5 ug/mL goat anti-GST polyclonal antibody (Pierce) in PBS is added to a polystyrene 96-well plate (e.g., Num Polysorb) at 4° C. for 12 hours. • b. The plate is blocked by addition of 200 uL per well of PBS/BSA for 2 hours at 4° C. • c. The plate is washed 3 times with PBS. • d. […]
(3) The binding of the biotinylated peptide to the GST/PDZ fusion protein surface can be detected using a variety of methods and detectors known to one of skill in the art. […] The reaction of the HRP and its substrate is terminated by addition of 100 uL per well of 1M sulfuric acid, and the absorbance of each well of the plate is read at 450 nm.
(4) Specific binding of a PL peptide and a PDZ domain polypeptide is determined by comparing the signal from the well(s) in which the PL peptide and PDZ domain polypeptide are combined, with the background signal(s). […]

DLG3 (PDZ1-2) = DLG3 (PDZ1-2) (Homo sapiens, UniProt Q92796); conditions: E6 peptide titrated against constant GST-PDZ; DLG3 (1-2)
Chain of DLG3 (PDZ1-2) (Q92796 129-315 limits assumed): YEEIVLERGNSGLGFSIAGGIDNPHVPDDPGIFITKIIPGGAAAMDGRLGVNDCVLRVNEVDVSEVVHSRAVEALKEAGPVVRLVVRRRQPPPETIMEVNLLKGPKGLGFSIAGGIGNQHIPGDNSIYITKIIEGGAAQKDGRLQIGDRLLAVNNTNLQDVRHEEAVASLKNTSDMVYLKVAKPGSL
Protocol: (§1) (1) A GST/PDZ fusion protein, as well as GST alone as a negative control, are bound to a surface (e.g., a 96-well plate) and the surface blocked and washed as described supra for the “G” assay.
(§2) (2) 50 uL per well of a solution of biotinylated PL peptide (e.g. as shown in TABLE 2) is added to the surface in increasing concentrations in PBS/BSA (e.g. at 0.1 uM, 0.33 uM, 1 uM, 3.3 uM, 10 uM, 33 uM, and 100 uM). In one embodiment, the PL peptide is allowed to react with the bound GST/PDZ fusion protein (as well as the GST alone negative control) for 10 minutes at 4° C. followed by 20 minutes at 25° C. The plate is washed 3 times with ice cold PBS to remove unbound labeled peptide.
(§3) (3) The binding of the PL peptide to the immobilized PDZ-domain polypeptide is detected as described supra for the “G” assay.
(§4) (4) For each concentration of peptide, the net binding signal is determined by subtracting the binding of the peptide to GST alone from the binding of the peptide to the GST/PDZ fusion protein. The net binding signal is then plotted as a function of ligand concentration and the plot is fit (e.g. by using the Kaleidagraph software package curve fitting algorithm; Synergy Software) to the following equation, where “Signal[ligand]” is the net binding signal at PL peptide concentration “[ligand],” “Kd” is the apparent affinity of the binding event, and “Saturation Binding” is a constant determined by the curve fitting algorithm to optimize the fit to the experimental data: […]

Magi3 (PDZ1) = Magi3 (PDZ1) (Homo sapiens, UniProt Q5TCQ9); conditions: E6 peptide titrated against constant GST-PDZ; Magi3 (1)
Chain of Magi3 (PDZ1) (Q5TCQ9 401-502): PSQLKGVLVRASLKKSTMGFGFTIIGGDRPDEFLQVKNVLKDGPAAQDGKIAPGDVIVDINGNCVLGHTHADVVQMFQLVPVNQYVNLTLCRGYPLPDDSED
Protocol: as §1, §2, §3, §4

PSD95 (PDZ1-3) = PSD95 (PDZ1-3) (Homo sapiens, UniProt P78352); conditions: E6 peptide titrated against constant GST-PDZ; PSD95 (1-3)
Protocol: as §1, §2, §3, §4

PSD95 (PDZ2) = PSD95 (PDZ2) (Homo sapiens, UniProt P78352); conditions: E6 peptide titrated against constant GST-PDZ; PSD95 (2)
Protocol: as §1, §2, §3, §4

VARTUL = conditions: E6 peptide titrated against constant GST-PDZ
Protocol: as §1, §2, §3, §4

“20 mer peptide corresponding to the C-terminus of HPV16 E6 (PDZ ligand), biotinylated in binding assays; ends SSRTRRETQL (SEQ ID NO: 13) [HPV E6 #16]” was tested, and the “PDZ binding partner (signal 4 and 5 of 0-5)” value (human PDZ domains) was “TIP-1; also recorded: Magi1 (PDZ #2)”, the EC50 (DLG3 (PDZ1-2)) was 3800 nM and the EC50 (Magi3 (PDZ1)) was 310 nM. The EC50 (PSD95 (PDZ1-3)) was 1000 nM, the EC50 (PSD95 (PDZ2)) was 6800 nM and the EC50 (VARTUL) was 940 nM.
